Data as given in US20200017496A1 (priority 2017, published 2020).
Like-named read-outs stand apart in the source and are kept apart here.

Test system: Escherichia coli (ECO) isolates
Assay: MIC of compounds alone and combined with antibacterials, broth microdilution (CLSI)
Assay type: cell-based
Settings: for MIC: Escherichia coli
Procedure, shortened: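 Log-phase isolates at final 5·10^5 CFU/mL in cation-adjusted Mueller-Hinton broth, incubated 16-20 h at 35° C in ambient air. MIC read visually as lowest concentration preventing growth, for compound alone and for antibacterial at each compound concentration.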

C=CC1=C(C(=O)O)N2C(=O)[C@@H](NC(=O)/C(=N\OCC(=O)O)c3csc(N)n3)[C@H]2SC1 [FIX, Cefixime]
64 µg/mL: MIC ATB in combination (ECO UFR208, AF1 @ 4 μg/mL) | MIC ATB in combination (ECO UFR212, AF1 @ 4 μg/mL)
4 µg/mL: MIC ATB in combination (ECO UFR185, AF1 @ 4 μg/mL)
0.25 µg/mL: MIC ATB in combination (ECO UFR61O, AF1 @ 4 μg/mL)
0.5 µg/mL: MIC ATB in combination (ECO UFR18, AF1 @ 8 μg/mL) | MIC ATB in combination (ECO UFR86, AF1 @ 4 μg/mL) | MIC (strain ECO 4133 (TEM-30, OXA-1), ATB alone) | MIC (strain ECO 4133 (TEM-30, OXA-1), CLA @ 4 μg/ml+ ATB) | MIC (strain ECO 5302 (TEM-1, OXA-1), ATB alone) | MIC (strain ECO 5302 (TEM-1, OXA-1), CLA @ 4 μg/ml+ ATB)
0.063 µg/mL: MIC ATB in combination (ECO UFR209, AF1 @ 8 μg/mL)
<0.25 µg/mL: MIC ATB in combination (ECO UFR19, AF1 @ 8 μg/mL) | MIC ATB in combination (ECO UFR174, AF1 @ 8 μg/mL) | MIC ATB in combination (ECO UFR185, AF1 @ 8 μg/mL)
1 µg/mL: MIC ATB in combination (ECO UFR20, AF1 @ 4 μg/mL) | MIC ATB in combination (ECO UFR20, AF1 @ 8 μg/mL) | MIC ATB in combination (ECO UFR74, AF1 @ 8 μg/mL)
512 µg/mL: MIC (ECO UFR20, alone)
32 µg/mL: MIC ATB in combination (ECO UFR74, AF1 @ 4 μg/mL) | MIC ATB in combination (ECO UFR208, AF1 @ 8 μg/mL)
8 µg/mL: MIC ATB in combination (ECO UFR184, AF1 @ 4 μg/mL)
16 µg/mL: MIC ATB in combination (ECO UFR17, AF1 @ 8 μg/mL) | MIC ATB in combination (ECO UFR18, AF1 @ 4 μg/mL) | MIC ATB in combination (ECO UFR19, AF1 @ 4 μg/mL)
> 128 µg/mL: MIC (ECO 190317, alone, read-out: MIC) | MIC (ECO UFR16, alone, read-out: MIC)
<=0.25 μg/mL: MIC ATB in combination (ECO 180070, AF1 @ 8 μg/mL) | MIC ATB in combination (ECO 190314, AF1 @ 4 μg/mL) | MIC ATB in combination (ECO 190314, AF1 @ 8 μg/mL) | MIC ATB in combination (ECO 190317, AF1 @ 4 μg/mL) | MIC ATB in combination (ECO 190317, AF1 @ 8 μg/mL) | MIC ATB in combination (ECO 190549, AF1 @ 4 μg/mL) | MIC ATB in combination (ECO 190549, AF1 @ 8 μg/mL) | MIC ATB in combination (ECO 200159, AF1 @ 4 μg/mL) | MIC ATB in combination (ECO 200159, AF1 @ 8 μg/mL) | MIC ATB in combination (ECO 200259, AF1 @ 4 μg/mL) | MIC ATB in combination (ECO 200259, AF1 @ 8 μg/mL) | MIC ATB in combination (ECO 200344, AF1 @ 4 μg/mL) | MIC ATB in combination (ECO 200344, AF1 @ 8 μg/mL) | MIC ATB in combination (ECO 260096, AF1 @ 4 μg/mL) | MIC ATB in combination (ECO 260096, AF1 @ 8 μg/mL) | MIC ATB in combination (ECO 260304, AF1 @ 4 μg/mL) | MIC ATB in combination (ECO 260304, AF1 @ 8 μg/mL) | MIC ATB in combination (ECO 260508, AF1 @ 4 μg/mL) | MIC ATB in combination (ECO 260508, AF1 @ 8 μg/mL) | MIC ATB in combination (ECO RGN238, AF1 @ 4 μg/mL) | MIC ATB in combination (ECO RGN238, AF1 @ 8 μg/mL) | MIC ATB in combination (ECO UFR15, AF1 @ 4 μg/mL) | MIC ATB in combination (ECO UFR15, AF1 @ 8 μg/mL) | MIC ATB in combination (ECO UFR16, AF1 @ 4 μg/mL) | MIC ATB in combination (ECO UFR16, AF1 @ 8 μg/mL) | MIC ATB in combination (ECO UFR62, AF1 @ 4 μg/mL) | MIC ATB in combination (ECO UFR62, AF1 @ 8 μg/mL) | MIC ATB in combination (ECO UFR86, AF1 @ 8 μg/mL) | MIC ATB in combination (ECO UFR174, AF1 @ 4 μg/mL) | MIC ATB in combination (ECO UFR175, AF1 @ 4 μg/mL) | MIC ATB in combination (ECO UFR175, AF1 @ 8 μg/mL) | MIC ATB in combination (ECO UFR176, AF1 @ 4 μg/mL) | MIC ATB in combination (ECO UFR176, AF1 @ 8 μg/mL) | MIC ATB in combination (ECO UFR184, AF1 @ 8 μg/mL) | MIC ATB in combination (ECO UFR186, AF1 @ 4 μg/mL) | MIC ATB in combination (ECO UFR186, AF1 @ 8 μg/mL) | MIC ATB in combination (ECO UFR187, AF1 @ 4 μg/mL) | MIC ATB in combination (ECO UFR187, AF1 @ 8 μg/mL) | MIC ATB in combination (ECO UFR189, AF1 @ 4 μg/mL) | MIC ATB in combination (ECO UFR189, AF1 @ 8 μg/mL) | MIC ATB in combination (ECO UFR190, AF1 @ 4 μg/mL) | MIC ATB in combination (ECO UFR190, AF1 @ 8 μg/mL) | MIC ATB in combination (ECO UFR191, AF1 @ 4 μg/mL) | MIC ATB in combination (ECO UFR191, AF1 @ 8 μg/mL) | MIC ATB in combination (ECO UFR207, AF1 @ 4 μg/mL) | MIC ATB in combination (ECO UFR207, AF1 @ 8 μg/mL) | MIC ATB in combination (ECO UFR210, AF1 @ 4 μg/mL) | MIC ATB in combination (ECO UFR210, AF1 @ 8 μg/mL) | MIC ATB in combination (ECO UFR211, AF1 @ 4 μg/mL) | MIC ATB in combination (ECO UFR211, AF1 @ 8 μg/mL) | MIC ATB in combination (ECO UFR212, AF1 @ 8 μg/mL) | MIC ATB in combination (ECO UFR218, AF1 @ 4 μg/mL) | MIC ATB in combination (ECO UFR218, AF1 @ 8 μg/mL)
0.031 µg/mL: MIC ATB in combination (ECO 190457, AF1 @ 8 μg/mL)
1020 µg/mL: MIC (ECO UFR209, alone, read-out: MIC)
128 µg/mL: MIC (ECO 190457, alone, read-out: MIC)
≤ 0.25 µg/mL: MIC (strain ECO 131119 (TEM-1, OXA-48), ATB alone) | MIC (strain ECO 131119 (TEM-1, OXA-48), CLA @ 4 μg/ml+ ATB)
